Earlier results as cited in patent publication US12290522B2, “Method of treating amyotrophic lateral sclerosis” (Woolsey Pharmaceuticals, Inc., priority 2021, dated 2025).

Conditions: in vivo; 1-hydroxy metabolite; Shibuya 2001; cited from earlier work

## O=S(=O)(c1cccc2c(O)nccc12)N1CCCNCC1 [M3]
  half-life: about 8 hours
